Measured values from publication PMC9127750, “Structure-based design of CDC42 effector interaction inhibitors for the treatment of cancer” (Cell reports, 2022).
“And” between values parts separate entries of the source, which are not always exact repeats. Identical values can stand only once.

Test system: WM3248 melanoma cells, 486 antibodies
Experiment: Reverse phase protein arrays (RPPA);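 on RPPA ACC1.R.C: ratio of treated to vehicle (0 µM) normalized linear protein signal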;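 on RPPA AMPK.a2 pS345.R.V: ratio of treated to vehicle (0 µM) normalized linear protein signal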;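 on RPPA AMPKa pT172.R.C: ratio of treated to vehicle (0 µM) normalized linear protein signal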;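 on RPPA ASNS.R.V: ratio of treated to vehicle (0 µM) normalized linear protein signal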;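 on RPPA AceCS1.R.V: ratio of treated to vehicle (0 µM) normalized linear protein signal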;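 on RPPA Akt1.R.V: ratio of treated to vehicle (0 µM) normalized linear protein signal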;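 on RPPA Atg5.R.C: ratio of treated to vehicle (0 µM) normalized linear protein signal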
Format: cell-based, Human
Description: Pellets were snap frozen in liquid nitrogen and shipped to MD Anderson Cancer Center core RPPA facility for RPPA analysis (Table S5). Three biological replicates for each sample were generated.
Nomenclatures on the RPPA heatmaps: name_of_antibody.species_of_antibody.status_of_antibody. V - antibody validated; C - validation of antibody in progress; Q - antibody nonspecific; E – under evaluation; antibodies raised in M - mouse, G - goat, R - rabbit, or T - rat.

CN(C)c1cccc(Nc2cc(-c3ccccc3)nc(C3CCNCC3)n2)c1 [ARN22089, N1,N1-dimethyl-N3-(6-phenyl-2-(piperidin-4-yl)pyrimidin-4-yl)benzene-1,3-diamine]
RPPA EGFR_pY1068.R.C (5 uM, single samples): 1.000 and 0.953 and 1.026 | RPPA EGFR_pY1173.R.V (5 uM, single samples): 0.975 and 1.083 and 1.079 | RPPA EMA.M.C (5 uM, single samples): 1.076 and 0.967 and 1.014 | RPPA ENY2.M.C (5 uM, single samples): 0.948 and 0.847 | RPPA ER.a.R.V (5 uM, single samples): 0.800 and 1.157 and 1.137 | RPPA ER.a_pS118.R.V (5 uM, single samples): 0.923 and 1.516 and 1.141 | RPPA ERCC1.R.C (5 uM, single samples): 1.055 and 0.895 and 0.971 | RPPA ERCC5.R.C (5 uM, single samples): 1.027 and 0.974 and 0.973 | RPPA ERRalpha.R.V (5 uM, single samples): 1.078 and 0.970 and 0.952 | RPPA EVI1.R.V (5 uM, single samples): 0.942 and 0.941 | RPPA Elk1_pS383.R.C (5 uM, single samples): 0.946 and 1.013 and 1.129 | RPPA Enolase.1.R.V (5 uM, single samples): 1.024 and 0.893 and 0.818 | RPPA Enolase.2.R.V (5 uM, single samples): 0.995 and 0.946 | RPPA EphA2.R.V (5 uM, single samples): 0.776 and 1.046 | RPPA EphA2_pS897.R.C (5 uM, single samples): 0.644 and 1.190 and 1.055 | RPPA EphA2_pY588.R.C (5 uM, single samples): 0.942 and 0.920 | RPPA Erk5.R.V (5 uM, single samples): 1.097 and 1.135 | RPPA Ets.1.R.V (5 uM, single samples): 1.185 and 0.950 and 0.594 | RPPA FAK.R.C (5 uM, single samples): 0.858 and 1.217 and 0.941 | RPPA FAK_pY397.R.V (5 uM, single samples): 1.026 and 0.959 and 1.059 | RPPA FANCD2.R.V (5 uM, single samples): 0.883 and 1.063 | RPPA FASN.R.V (5 uM, single samples): 1.017 and 0.767 | RPPA FGF.basic.R.C (5 uM, single samples): 0.868 and 1.191 | RPPA FN14.R.C (5 uM, single samples): 0.857 and 1.226 and 1.168 | RPPA FOXM1.R.V (5 uM, single samples): 0.885 | RPPA FOXO3.R.V (5 uM, single samples): 0.861 and 0.945 and 1.100 | RPPA FRS2.alpha_pY196.R.V (5 uM, single samples): 0.930 and 0.961 and 0.957 | RPPA FTO.R.V (5 uM, single samples): 1.124 and 0.945 and 0.752 | RPPA FoxO3a_pS318_S321.R.C (5 uM, single samples): 0.918 and 0.939 | RPPA G6PD.R.V (5 uM, single samples): 0.943 and 0.965 | RPPA GATA3.M.V (5 uM, single samples): 0.797 and 0.715 | RPPA GATA6.R.V (5 uM, single samples): 0.919 and 1.005 | RPPA GCLC.R.C (5 uM, single samples): 1.024 and 1.110 and 0.894 | RPPA GCLM.R.V (5 uM, single samples): 0.926 and 0.954 | RPPA GCN5L2.R.V (5 uM, single samples): 0.871 and 1.148 | RPPA GGPS1.M.V (5 uM, single samples): 0.934 and 0.780 | RPPA GRB2.R.V (5 uM, single samples): 0.928 and 1.049 and 1.170 | RPPA GRB7.R.V (5 uM, single samples): 0.960 and 1.157 and 0.957 | RPPA GSK.3B.R.C (5 uM, single samples): 1.001 and 1.019 | RPPA GSK.3a.b.M.V (5 uM, single samples): 0.936 and 0.817 | RPPA GSK.3a.b_pS21_S9.R.V (5 uM, single samples): 0.866 and 1.380 and 0.704 | RPPA Gab2.R.V (5 uM, single samples): 1.251 and 0.896 and 0.910 | RPPA Gli1.R.C (5 uM, single samples): 1.000 and 0.967 | RPPA Gli3.R.C (5 uM, single samples): 0.979 and 1.003 and 0.745 | RPPA Glucocorticoid.Receptor.R.V (5 uM, single samples): 1.035 and 1.000 and 1.021 | RPPA Glutamate.D1.2.R.V (5 uM, single samples): 0.976 and 0.943 and 0.801 | RPPA Glutaminase.R.C (5 uM, single samples): 0.948 and 1.063 and 0.715 | RPPA Granzyme.B.R.V (5 uM, single samples): 0.964 and 1.146 | RPPA Grp75.R.C (5 uM, single samples): 0.944 and 0.963 | RPPA Gys.R.V (5 uM, single samples): 0.967 and 1.080 | RPPA Gys_pS641.R.V (5 uM, single samples): 0.994 and 1.246 and 0.822 | RPPA H2AX_pS139.R.C (5 uM, single samples): 0.914 and 1.103 | RPPA H2AX_pS140.M.C (5 uM, single samples): 1.104 and 0.895 and 0.770 | RPPA HER2.M.V (5 uM, single samples): 0.948 and 0.899 | RPPA HER2_pY1248.R.V (5 uM, single samples): 0.827 and 1.156 | RPPA HER3.R.V (5 uM, single samples): 0.886 and 0.834 | RPPA HER3_pY1289.R.C (5 uM, single samples): 0.992 and 0.888 | RPPA HES1.R.V (5 uM, single samples): 1.367 and 1.154 | RPPA Heregulin.R.V (5 uM, single samples): 0.832 and 1.116 and 1.160 | RPPA eEF2K.R.V (5 uM, single samples): 0.918 and 0.788 | RPPA eIF4E.R.V (5 uM, single samples): 0.941 and 1.515 and 0.898 | RPPA eIF4E_pS209.R.V (5 uM, single samples): 0.935 and 1.281 and 0.858 | RPPA eIF4G.R.C (5 uM, single samples): 1.030 and 0.956 and 1.155 | RPPA MYH11.R.C Average (10 uM): 1.243 | RPPA Myosin.IIa.R.C Average (10 uM): 0.941 | RPPA Myosin.IIa_pS1943.R.V Average (10 uM): 1.022 | RPPA Myt1.R.C Average (10 uM): 0.989 | RPPA N.Cadherin.R.V Average (10 uM): 1.064 | RPPA N.Ras.M.V Average (10 uM): 0.991 | RPPA NDRG1_pT346.R.V Average (10 uM): 1.015 | RPPA NDUFB4.R.V Average (10 uM): 1.035 | RPPA NRF2.R.C Average (10 uM): 0.996 | RPPA Notch1.R.V Average (10 uM): 1.064 | RPPA Notch1.cleaved.R.V Average (10 uM): 0.926 | RPPA Notch3.R.C Average (10 uM): 1.098 | RPPA Oct.4.R.C Average (10 uM): 1.008 | RPPA P.Cadherin.R.C Average (10 uM): 0.973 | RPPA PAI.1.M.V Average (10 uM): 1.014 | RPPA PAICS.R.C Average (10 uM): 0.920 | RPPA PAK1.R.V Average (10 uM): 0.961 | RPPA PAK4.R.V Average (10 uM): 1.063 | RPPA PAK_pS474_S602_S560.R.V Average (10 uM): 1.085 | RPPA PAK_pT423_T402.R.C Average (10 uM): 0.987 | RPPA PAR.R.C Average (10 uM): 0.480 | RPPA PARG.R.C Average (10 uM): 0.970 | RPPA PARP.R.V Average (10 uM): 1.017 | RPPA PAX6.R.V Average (10 uM): 1.003 | RPPA PCNA.M.C Average (10 uM): 0.987 | RPPA PD.1.R.V Average (10 uM): 1.058 | RPPA PD.L1.R.C Average (10 uM): 0.976 | RPPA PDH.M.V Average (10 uM): 1.031 | RPPA PDHA1.R.V Average (10 uM): 0.986 | RPPA PDHK1.R.C Average (10 uM): 0.952 | RPPA PDK1_pS241.R.V Average (10 uM): 0.942 | RPPA PEA.15.R.V Average (10 uM): 0.922 | RPPA PERK.R.V Average (10 uM): 1.010 | RPPA PGM1.R.V Average (10 uM): 0.998 | RPPA PHLPP.R.V Average (10 uM): 1.083 | RPPA PI3K.p85.R.C Average (10 uM): 1.062 | RPPA PI3K.p110.a.R.C Average (10 uM): 0.904 | RPPA PI3K.p110.b.M.C Average (10 uM): 0.987 | RPPA PKA.a.R.V Average (10 uM): 0.877 | RPPA PKC.a.b.II_pT638_T641.R.V Average (10 uM): 0.910 | RPPA PKC.b.II_pS660.R.V Average (10 uM): 1.018 | RPPA PKCa.R.V Average (10 uM): 0.991 | RPPA PKM2.R.C Average (10 uM): 0.940 | RPPA PLC.gamma1.R.V Average (10 uM): 1.083 | RPPA PLC.gamma1_pS1248.R.V Average (10 uM): 0.999 | RPPA PLK1.R.C Average (10 uM): 0.905 | RPPA PR.R.V Average (10 uM): 1.064 | RPPA PRAS40.M.C Average (10 uM): 1.049 | RPPA PRAS40_pT246.R.V Average (10 uM): 0.957 | RPPA Patched.R.C Average (10 uM): 0.971 | RPPA Paxillin.R.C Average (10 uM): 0.830 | RPPA Pdcd4.R.C Average (10 uM): 0.977 | RPPA Porin.M.V Average (10 uM): 1.020 | RPPA p21.R.C Average (10 uM): 1.010 | RPPA p27.Kip1.R.C Average (10 uM): 1.046 | RPPA p27_pT157.R.C Average (10 uM): 1.014 | RPPA p27_pT198.R.V Average (10 uM): 1.168 | RPPA p38.MAPK.R.V Average (10 uM): 0.975 | RPPA p38.a.M.V Average (10 uM): 1.028 | RPPA p53.R.C Average (10 uM): 0.908 | RPPA p70.S6K1.R.V Average (10 uM): 0.918 | RPPA p70.S6K_pT389.R.V Average (10 uM): 0.996 | RPPA p90RSK_pT573.R.C Average (10 uM): 1.053 | RPPA A.Raf.R.V (10 uM, 10W1): 0.962 | RPPA ACC1.R.C (10 uM, 10W1): 1.063 | RPPA ACC_pS79.R.V (10 uM, 10W1): 0.772 | RPPA ACLY_pS455.R.V (10 uM, 10W1): 1.099 | RPPA ACSL1.R.V (10 uM, 10W1): 0.988 | RPPA ACVRL1.R.C (10 uM, 10W1): 1.018 | RPPA ADAR1.M.V (10 uM, 10W1): 1.194 | RPPA ALKBH5.R.V (10 uM, 10W1): 0.984 | RPPA AMPK.a2_pS345.R.V (10 uM, 10W1): 1.028 | RPPA AMPKa.R.C (10 uM, 10W1): 0.972 | RPPA AMPKa_pT172.R.C (10 uM, 10W1): 0.665 | RPPA AR.R.V (10 uM, 10W1): 0.830 | RPPA ASNS.R.V (10 uM, 10W1): 0.786 | RPPA ATM_pS1981.R.V (10 uM, 10W1): 1.131 | RPPA ATP5A.M.C (10 uM, 10W1): 0.979 | RPPA ATP5H.R.V (10 uM, 10W1): 1.113 | RPPA ATRX.R.C (10 uM, 10W1): 1.033 | RPPA ATR_pS428.R.C (10 uM, 10W1): 0.934 | RPPA AceCS1.R.V (10 uM, 10W1): 0.931 | RPPA Akt1.R.V (10 uM, 10W1): 0.892 | RPPA Akt1_pS473.R.V (10 uM, 10W1): 0.970 | RPPA Akt2.R.V (10 uM, 10W1): 0.959 | RPPA Akt2_pS474.R.C (10 uM, 10W1): 1.062 | RPPA Akt.R.V (10 uM, 10W1): 0.917 | RPPA Akt_pS473.R.V (10 uM, 10W1): 1.128 | RPPA Akt_pT308.R.V (10 uM, 10W1): 0.936 | RPPA Ambra1_pS52.R.C (10 uM, 10W1): 1.051 | RPPA Annexin.I.M.V (10 uM, 10W1): 1.059 | RPPA Annexin.VII.M.V (10 uM, 10W1): 1.077 | RPPA Atg3.R.V (10 uM, 10W1): 0.970 | RPPA Atg4B.R.C (10 uM, 10W1): 0.890 | RPPA Atg5.R.C (10 uM, 10W1): 0.920 | RPPA Atg7.R.V (10 uM, 10W1): 0.855 | RPPA Aurora.A.R.C (10 uM, 10W1): 0.735 | RPPA Aurora.ABC_pT288_pT232_pT198.R.C (10 uM, 10W1): 0.857 | RPPA Aurora.B.R.V (10 uM, 10W1): 1.102 | RPPA Axl.R.V (10 uM, 10W1): 0.724
